Assay results: paper PMC12294558, “New 1,2,4-Triazole Derivatives with a N-Mannich Base Structure Based on a 4,6-Dimethylpyridine Scaffold as Anticancer Agents: Design, Synthesis, Biological Evaluation, and Molecular Modeling” (International Journal of Molecular Sciences, 2025)

What was measured:
EPG cells = experiment: MTT viability assay, gastric cancer cells; type: cell-based, human; settings: for SI, EPG: CC50 CCD 841 CoTr / CC50 EPG; for CC50: Homo sapiens, MTT, 24 h, read-out: CC50 ± SD, EPG
Description: (§1) The cytotoxic effects of ten newly synthesized N-Mannich bases were assessed on the normal human intestinal epithelium (CCD 841 CoTr) and cancer cell lines: gastric cancer (EPG) and four colorectal cancer lines (Caco-2, LoVo, LoVo/Dx, and HT-29). Cell viability was evaluated using the MTT assay in accordance with Annex C of ISO 10993-5 [33].
(§2) The biological activity of the newly synthesized compounds was assessed in the context of anticancer activity. For this purpose, several gastrointestinal cancer lines were selected: gastric cancer (EPG 257, which belongs to the collection of the Laboratory of Cell Culture and Advanced Therapy at the University of Environmental and Life Sciences in Wrocław), and four colorectal cancer cell lines (LoVo, Caco-2, and HT-29) were obtained from the European Collection of Authenticated Cell Cultures (ECACC) and were delivered by Sigma-Aldrich, a certified distributor for the biobank. Additionally, LoVo cells were used to develop a doxorubicin-resistant subline, referred to as LoVo/Dx. Resistance was induced through gradual adaptation to increasing concentrations of doxorubicin, starting from 0.1 µg/mL and incrementally raised to 0.8 µg/mL. After reaching the maximum concentration, the cells were maintained in a medium containing 0.4 µg/mL doxorubicin for a period of three months to stabilize the resistant phenotype. […] The resulting LoVo/Dx subline, resistant to doxorubicin, was cultured in DMEM/F-12 medium and utilized in assays evaluating the effectiveness of novel compounds against multidrug-resistant cancer cells. […] The non-cancerous cell control was normal colonic epithelial cells (CCD 841 CoTr from American Type Culture Collection, (ATCC, Manassas, VA, USA)). Cell cultures were performed under standard conditions (5% CO2, 95% humidity, and 37 °C). Each cell line was cultured in the recommended medium: (1) HT-29 in McCoy’s 5a, (2) Caco-2 in Minimal Essential Medium (MEM, Biological Industries, Beit Haemek, Israel), (3) CCD 841 CoTr in Dulbecco’s Modified Eagle Medium (DMEM, Biological Industries, Beit Haemek, Israel), (4) LoVo in Dulbecco’s Modified Eagle Medium/F-12 (DMEM/F-12; Biological Industries, Beit Haemek, Israel), (5) LoVo/Dx in DMEM/F-12, and (6) EPG in DMEM. Culture media were supplemented with 10% fetal bovine serum (FBS, Sigma-Aldrich, Darmstadt, Germany) and antibiotics (penicillin and streptomycin; Sigma-Aldrich, Darmstadt, Germany). For assays, trypsinized (TrypLE solution, Thermo Fisher Scientific, Waltham, MA, USA) cells were seeded at appropriate densities of 10,000 cells per well for MTT and determination of apoptotic and necrotic cell numbers; 30,000 cells per well for the rhodamine accumulation assay; and 500,000 cells per well for ELISA tests.
(§3) The cytotoxicity of the compounds and drugs used as controls was assessed using the MTT assay. The assay also included a DMSO control. After seeding and allowing the cells to adhere overnight, they were treated with the tested compounds and drugs for another 24 h. After this time, the supernatant was removed, and a 1 mg/mL MTT solution was added for 2 h in 5% CO2, 95% humidity, at 37 °C. The supernatant was then removed, and isopropanol was added to dissolve the purple crystals over 30 min by shaking. Absorbance was measured at 570 nm in a Multiskan GO microplate reader (Thermo Fisher Scientific; Waltham, MA, USA). All reagents used for the assays were purchased from Sigma-Aldrich, Darmstadt, Germany.
(§4) Biological assays were performed in three independent replicates, each involving four samples. ELISA determinations were repeated three times.

[1] = molecular target: T1, P-glycoprotein (HT-29 cells) (Homo sapiens, UniProt P08183); experiment: Rhodamine-123 accumulation assay in HT-29; type: cell-based; settings: 50 µM, 24 h; versus untreated control
T1 construct: intracellular accumulation of rhodamine 123 (a fluorescent P-gp substrate analog) in P-gp-expressing cell lines (HT-29, LoVo, and LoVo/Dx); endogenous in cells; host or cells: HT-29, LoVo (ECACC via Sigma-Aldrich); LoVo/Dx (doxorubicin-selected subline of LoVo)
Excerpt: (§5) This test measured the intracellular accumulation of rhodamine 123 (a fluorescent P-gp substrate analog) in P-gp-expressing cell lines (HT-29, LoVo, and LoVo/Dx). Following accumulation and efflux phases, the fluorescence of rhodamine 123 (Rh-123) was quantified using spectrofluorimetry. The results are illustrated in Figure 3. Verapamil, a calcium channel blocker, served as a positive control for P-gp inhibition due to its well-established ability to inhibit P-gp activity. Verapamil binds to P-gp, inhibiting its function, which increases the intracellular concentration of chemotherapeutic drugs and other P-gp substrates.
(§6) The activity was measured for cells treated with a 50 µM concentration of the compounds and drugs in the recommended media for each cell line (without FBS) in a volume of 100 µL for 24 h. In this test, verapamil served as the control. After the incubation period, a 10 mM Rhodamine-123 (Rh-123) solution was prepared in a 1:1 DMSO mixture. […] Fluorescence was measured at 485 nm excitation and 538 nm emission using a Biotek Synergy H1 microplate reader (Agilent Technologies, Inc., Santa Clara, CA, USA). […]
(§7) Results are expressed as the mean ± SD (standard deviation) relative to the respective control (E/E0), where E represents the mean result for the measured sample, and E0 represents the mean result for the control. […]

Caco-2 cells = experiment: MTT viability assay, colorectal cancer cells Caco-2; type: cell-based, human; settings: for SI, Caco-2: CC50 CCD 841 CoTr / CC50 Caco-2; for CC50: Homo sapiens, Caco-2, MTT, 24 h, read-out: CC50 ± SD, Caco-2
Description: as §1, §2, §3, §4

[2] = MTT viability assay, normal colonic epithelial cells; type: cell-based, human; settings: human, CCD 841 CoTr normal colonic epithelial cells, Non-toxic = no toxicity in tested range 1–500 μM, read-out: CC50 ± SD, CCD 841 CoTr
Description: as §1, §2, §3, §4

[3] = molecular target: T2, P-glycoprotein (LoVo cells) (Homo sapiens, UniProt P08183); experiment: Rhodamine-123 accumulation assay in LoVo; type: cell-based; settings: 50 µM, 24 h; versus untreated control
T2 construct: intracellular accumulation of rhodamine 123 (a fluorescent P-gp substrate analog) in P-gp-expressing cell lines (HT-29, LoVo, and LoVo/Dx); endogenous in cells; host or cells: HT-29, LoVo (ECACC via Sigma-Aldrich); LoVo/Dx (doxorubicin-selected subline of LoVo)
Excerpt: as §5, §6, §7

T2 sequence (P08183 whole entry): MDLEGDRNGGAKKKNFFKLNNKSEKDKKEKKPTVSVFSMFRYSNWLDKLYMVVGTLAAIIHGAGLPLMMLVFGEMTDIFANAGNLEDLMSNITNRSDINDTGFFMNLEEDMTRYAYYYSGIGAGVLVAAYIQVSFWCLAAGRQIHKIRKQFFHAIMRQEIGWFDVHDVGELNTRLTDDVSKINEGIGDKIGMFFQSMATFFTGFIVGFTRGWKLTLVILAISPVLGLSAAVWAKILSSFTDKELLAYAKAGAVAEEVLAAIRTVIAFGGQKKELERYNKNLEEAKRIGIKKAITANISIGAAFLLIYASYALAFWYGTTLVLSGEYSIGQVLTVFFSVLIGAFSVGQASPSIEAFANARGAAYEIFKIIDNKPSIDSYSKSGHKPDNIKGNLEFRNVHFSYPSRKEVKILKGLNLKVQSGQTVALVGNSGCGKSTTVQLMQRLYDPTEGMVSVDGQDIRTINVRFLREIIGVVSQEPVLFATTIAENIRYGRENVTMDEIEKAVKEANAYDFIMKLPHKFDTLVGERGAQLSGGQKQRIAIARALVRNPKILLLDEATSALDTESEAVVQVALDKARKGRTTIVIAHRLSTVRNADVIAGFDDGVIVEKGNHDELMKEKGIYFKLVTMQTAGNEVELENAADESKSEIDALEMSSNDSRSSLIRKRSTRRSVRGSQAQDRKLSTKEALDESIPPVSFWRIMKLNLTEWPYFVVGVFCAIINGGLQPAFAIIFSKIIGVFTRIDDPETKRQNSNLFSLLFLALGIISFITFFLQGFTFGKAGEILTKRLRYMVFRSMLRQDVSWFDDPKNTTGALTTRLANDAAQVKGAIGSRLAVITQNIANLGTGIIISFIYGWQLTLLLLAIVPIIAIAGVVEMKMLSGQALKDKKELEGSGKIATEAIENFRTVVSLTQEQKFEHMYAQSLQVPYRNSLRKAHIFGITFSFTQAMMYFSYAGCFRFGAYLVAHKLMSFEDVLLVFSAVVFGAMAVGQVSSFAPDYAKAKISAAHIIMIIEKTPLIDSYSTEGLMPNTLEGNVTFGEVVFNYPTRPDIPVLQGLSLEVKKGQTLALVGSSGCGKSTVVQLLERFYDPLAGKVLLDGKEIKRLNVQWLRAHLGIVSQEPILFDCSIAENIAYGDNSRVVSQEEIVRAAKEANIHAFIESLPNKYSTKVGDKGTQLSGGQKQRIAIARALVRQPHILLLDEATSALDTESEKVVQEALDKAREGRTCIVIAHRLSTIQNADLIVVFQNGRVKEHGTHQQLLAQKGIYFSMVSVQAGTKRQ
T1 sequence (P08183 whole entry): as above

SMILES	SI, EPG (EPG cells)	CC50 (EPG cells) [µM]	Increase of Rh-123 accumulation, HT-29 [1] [fold]	SI, Caco-2 (Caco-2 cells)	CC50 (Caco-2 cells) [µM]	CC50 at 24 h [2] [µM]	Increase of Rh-123 accumulation, LoVo [3] [fold]
Cc1cc(C)c(C(=O)NCc2nn(CN3CCN(c4cccc(Cl)c4)CC3)c(=S)n2-c2ccccc2)c(S)n1 [Compound 5, 4,6-dimethyl-N-[(4-phenyl-5-thioxo-2-{[4-(3-chlorophenyl)piperazinyl]methyl}-4,5-dihydro-1H-1,2,4-triazol-3-yl)methyl]-2-sulfanylpyridine-3-carboxamide]	2.66	83 ± 4.6	1.23	0.97	228 ± 5.2	221 ± 2.4	2.8
Cc1ccc(N2CCN(Cn3nc(CNC(=O)c4c(C)cc(C)nc4S)n(-c4ccccc4)c3=S)CC2)cc1 [Compound 6]	6.72	57.7 ± 5.4	1.46	5.16	75.1 ± 5.1	388 ± 6.5	2.55
